{
  "source": "patent US6716829B2",
  "about": "“Aldosterone antagonist and cyclooxygenase-2 inhibitor combination therapy to prevent or treat inflammation-related cardiovascular disorders” (Pharmacia Corporation, priority 2000, dated 2004)",
  "key": {"[1]": {"test_system": "COX-2", "test": "Assay B: COX-2 mRNA in heart by quantitative RT-PCR (Taqman)", "type": "in vivo, Male Sprague Dawley rats", "protocol": "Assay B: In Vivo Aldosterone Infusion Model Male Sprague Dawley rats (n=39; BW=250 g) 2. Aldosterone ([…], sc via alzet minipump) 2. […] Hearts were harvested and divided by half through a transverse section at the mid-ventricles: The upper half was stored into formalin. The bottom part was snap-frozen in liquid nitrogen for biochemical analysis. Determination of osteopontin and COX-2 was performed by quantitative RT-PCR (Taqman). Osteopontin was also identified in the heart by immunohistochemistry."}, "[2]": {"test_system": "cyclooxygenase-2 (COX-2)", "test": "Assay C: COX-2 mRNA in heart by TaqMan RT-PCR", "type": "in vivo, Male Sprague-Dawley rats", "details": "for COX-2 (AU): mRNA", "protocol": "(§1) The procedure of Assay B was expanded upon in a further study. […] Myocardial tissue from animals in each treatment group was examined after 7, 14, or 30 days of treatment.\n(§2) Potassium chloride supplementation was added to the saline solution in order to prevent the potential hypokalemia associated with aldosterone excess.\n(§3) At the time of the surgery, an Alzet 2002 osmotic minipump (Alza Corp., Palo Alto, Calif.) containing either vehicle (9% ethanol/87% propylene glycol/4% dH2O) or 1.0 mg/mL d-aldosterone (Sigma Chemical, St. Louis, Mo.) was inserted subcutaneously at the nape of the neck. Aldosterone was administered at a dose of 0.75 µg/hour. […] Animals were sacrificed from each group (n=8-13) after 7, 14, or 30 days of treatment.\n(§4) The fluorogenic 5′-nuclease assay (TaqMan PCR) using Applied Biosystems' 7700 Sequence Detection System (Applied Biosystems, Foster City, Calif.) allowed for real time detection/quantitation of a specific gene by monitoring the increase in fluorescence of a gene-specific, dye-labeled oligonucleotide probe. Probes for target and reference genes were labeled at the 5′-end with a 6-carboxyfluorescein (6FAM) reporter dye and at the 3′-end with a 6-carboxy-N,N,N′,N′-tetramethylrhodamine (TAMRA) quencher dye. When the probe was annealed to the target gene, fluorescence of 6FAM was prevented by the close proximity of TAMRA. The exonuclease activity of Taq polymerase released the dyes from the oligonucleotide probe by displacing the probe from the target sequence resulting in fluorescence excitation in direct proportion to the amount of target message present. Data analysis was performed using the Sequence Detection System software from Applied Biosystems.\n(§5) All primers and probes were designed using Primer Express software supplied with the 7700 Sequence Detection System and synthesized by Applied Biosystems. Standard curves using 5-fold dilutions of total RNA (from 200 ng to 320 pg) were performed to determine the efficiency of each primer/probe set in the TaqMan reaction prior to the analysis of the experimental samples. Primer/probe sets were designed from known sequences of rat genes to be analyzed. All target gene values were normalized to a reference gene, constitutively expressed cyclophilin. Primer/probe set sequences can be found in Table 8.\n(§6) RNA was extracted from frozen (−80° C.) rat heart tissue using the Totally RNA Isolation Kit (Ambion, Inc., Austin, Tex.). Tissue was crushed using a stainless steel mortar and pestle, which had been chilled to −80° C. and transferred to a dounce homogenizer (Kontes, Vineland, N.J.) containing 3-10 mL cold denaturation buffer. Tissue was homogenized and transferred to a sterile, 15 mL polypropylene centrifuge tube. An equal volume of phenol:chloroform:isoamyl alcohol (25:24:1) was added, samples were shaken vigorously for 1 min, and incubated on ice for at least 15 min. Samples were centrifuged for 30 min at 10,000g. The aqueous phase was removed, 1/10 volume of a sodium acetate solution (3.0 M NaOAc pH 4.5) was added, samples were shaken or inverted for 10 seconds, and acid-phenol (premixed with isoamyl alcohol):chloroform (5:1, Ambion, Inc.) was added at an volume equivalent to the starting sample volume. Samples were shaken vigorously for 1 min, followed by a 15-min incubation on ice, and centrifuged for 30 min at 10,000 g. The aqueous phase removed and placed in a clean polypropylene tube. An equal volume of isopropanol (Sigma, St. Louis, Mo.) was added and the samples were mixed and incubated overnight at −20° C. The samples were centrifuged for 30 min at 10,000 g, the supernatant was removed and the RNA pellet was resuspended in DNAse/RNAse-free water. Samples were frozen at −80° C. for at least 2 hours, thawed on wet ice, and diluted for quantitation."}, "[3]": {"test_system": "osteopontin", "test": "Assay A: immunostaining of hearts with osteopontin-specific antibody", "type": "in vivo, Male Wistar rats", "details": "angiotensin II-infused, saline-drinking rats; eplerenone 100 mpk; aldosterone replacement in adrenalectomized rats", "description": "Osteopontin (also known as early T-cell activation-1, Eta-1) is a secreted glycoprotein with pro-inflammatory characteristics that mediates chemoattraction, activation and migration of monocytes."}, "[4]": {"test_system": "Osteopontin", "test": "Assay C: osteopontin mRNA in heart by TaqMan RT-PCR", "type": "in vivo, Male Sprague-Dawley rats", "details": "for Osteop-pontin mRNA (AU): relative to cyclophilin expression, mean ± SEM, eplerenone dose 100 mg/kg/day; for Osteopontin (AU): mRNA, individual rats, incl. rat marked * excluded from statistics, listed as Aldosterone + salt", "protocol": "as §1, §2, §3, §4, §5, §6"}, "[5]": {"test_system": "vascular cell adhesion molecule-1 (VCAM-1)", "test": "Assay C: VCAM-1 mRNA in heart by TaqMan RT-PCR", "type": "in vivo, Male Sprague-Dawley rats", "details": "for VCAM mRNA (AU): relative to cyclophilin expression, mean ± SEM, eplerenone dose 100 mg/kg/day; for VCAM (AU): mRNA", "protocol": "as §1, §2, §3, §4, §5, §6"}, "[6]": {"test_system": "cyclooxgenase-2", "test": "Assay A: immunostaining of hearts with cyclooxygenase-2 specific antibody", "type": "in vivo, Male Wistar rats", "details": "angiotensin II infused rats; eplerenone 100 mpk; aldosterone replacement in adrenalectomized rats", "description": "Cycloxygenase-2 staining was also observed in the vascular smooth muscle cells of the media of coronary arteries, even when there was no evidence of morphologic alterations or inflammatory aggregates in the perivascular space (FIG. 26)."}, "[7]": {"details": "group mean, data used for Table 17 (7-day protocol)"}, "[8]": {"details": "group mean, data used for Table 18 (14-day protocol)"}, "[9]": {"details": "group mean, data used for Table 19 (30-day protocol)"}, "[10]": {"details": "individual rats, data used for Table 17 (7-day protocol), incl. rat marked * excluded from statistics, listed as Aldosterone + salt"}, "[11]": {"details": "individual rats, data used for Table 18 (14-day protocol), incl. rat marked * excluded from statistics, listed as Aldosterone + salt"}, "[12]": {"details": "individual rats, data used for Table 19 (30-day protocol), incl. rat marked * excluded from statistics, listed as Aldosterone + salt"}, "[13]": {"details": "myocardium, aldosterone + salt, 7, 14, 30 days, eplerenone 100 mg/kg/day"}},
  "note": "Several values for one entry are separate records, joined by “and”; a condition that tells them apart may be missing. Equal values may be shown once.",
  "data": [
    {"smiles": "C[C@]12CCC(=O)C=C1CC[C@@H]1[C@@H]2[C@@H](O)C[C@]2(C=O)[C@@H](C(=O)CO)CC[C@@H]12", "note": "[Aldosterone]", "values": [
      {"measurement": "COX-2 mRNA expression increase", "setting": "[1]; aldosterone/salt + vehicle vs control", "result": 3, "unit": "fold"},
      {"measurement": "COX-2 relative mRNA expression", "setting": "[1]; hearts of aldosterone/salt-treated rats, quantitative RT-PCR, eplerenone 100 mpk", "result": "3.7±0.46"},
      {"measurement": "COX-2 (AU)", "setting": "[2]; [7]", "result": 2.22, "unit": "AU"},
      {"measurement": "COX-2 (AU)", "setting": "[2]; [8]", "result": 4.34, "unit": "AU"},
      {"measurement": "COX-2 (AU)", "setting": "[2]; [9]", "result": 4.53, "unit": "AU"},
      {"measurement": "COX-2 (AU)", "setting": "[2]; [10]", "result": "2.10 AU and 0.70 AU and 2.01 AU and 2.95 AU and 2.05 AU and 1.94 AU and 3.54 AU and 2.45 AU and 0.82 AU"},
      {"measurement": "COX-2 (AU)", "setting": "[2]; [11]", "result": "7.39 AU and 1.83 AU and 5.80 AU and 2.59 AU and 6.63 AU and 4.18 AU and 3.71 AU and 2.62 AU and 23.34 AU"},
      {"measurement": "COX-2 (AU)", "setting": "[2]; [12]", "result": "4.26 AU and 4.81 AU and 1.54 AU and 3.10 AU and 5.28 AU and 8.20 AU"},
      {"measurement": "COX-2 mRNA expression", "setting": "[2]; [13]", "result": "significantly increased"},
      {"measurement": "Osteopontin expression in the heart (immunostaining)", "setting": "[3]", "result": "restored osteopontin expression"},
      {"measurement": "Osteop-pontin mRNA (AU)", "setting": "[4]; after 7 days of treatment", "result": 1.91, "unit": "AU"},
      {"measurement": "Osteopontin expression upregulation", "setting": "[4]; after 14 days of aldosterone + salt treatment", "result": "~6", "unit": "fold"},
      {"measurement": "Osteop-pontin mRNA (AU)", "setting": "[4]; after 14 days of treatment", "result": 6.56, "unit": "AU"},
      {"measurement": "Osteopontin expression upregulation", "setting": "[4]; after 30 days of aldosterone + salt treatment", "result": "~13", "unit": "fold"},
      {"measurement": "Osteop-pontin mRNA (AU)", "setting": "[4]; after 30 days of treatment", "result": 13.27, "unit": "AU"},
      {"measurement": "Osteopontin (AU)", "setting": "[4]; data used for Table 17 (7-day protocol)", "result": "1.84 AU and 0.84 AU and 0.95 AU and 1.05 AU and 1.08 AU and 4.92 AU and 3.29 AU and 1.32 AU and 28.64 AU"},
      {"measurement": "Osteopontin (AU)", "setting": "[4]; data used for Table 18 (14-day protocol)", "result": "8.14 AU and 1.02 AU and 6.19 AU and 4.06 AU and 12.04 AU and 2.35 AU and 8.25 AU and 10.41 AU and 81.29 AU"},
      {"measurement": "Osteopontin (AU)", "setting": "[4]; data used for Table 19 (30-day protocol)", "result": "13.13 AU and 11.43 AU and 13.78 AU and 7.97 AU and 18.44 AU and 14.88 AU"},
      {"measurement": "VCAM mRNA (AU)", "setting": "[5]; after 7 days of treatment", "result": "1.55 ± 0.39", "unit": "AU"},
      {"measurement": "VCAM mRNA (AU)", "setting": "[5]; after 14 days of treatment", "result": 1.16, "unit": "AU"},
      {"measurement": "VCAM mRNA (AU)", "setting": "[5]; after 30 days of treatment", "result": "2.14 ± 0.49", "unit": "AU"},
      {"measurement": "VCAM (AU)", "setting": "[5]; [7]", "result": 1.55, "unit": "AU"},
      {"measurement": "VCAM (AU)", "setting": "[5]; [8]", "result": 1.16, "unit": "AU"},
      {"measurement": "VCAM (AU)", "setting": "[5]; [9]", "result": 2.14, "unit": "AU"},
      {"measurement": "VCAM (AU)", "setting": "[5]; [10]", "result": "3.49 AU and 0.85 AU and 2.06 AU and 2.51 AU and 1.65 AU and 0.61 AU and 0.94 AU and 0.27 AU and 5.23 AU"},
      {"measurement": "VCAM (AU)", "setting": "[5]; [11]", "result": "0.89 AU and 0.69 AU and 0.84 AU and 0.72 AU and 2.23 AU and 1.03 AU and 1.65 AU and 1.24 AU and 1.75 AU"},
      {"measurement": "VCAM (AU)", "setting": "[5]; [12]", "result": "3.48 AU and 1.87 AU and 2.99 AU and 1.64 AU and 0.72 AU"},
      {"measurement": "VCAM-1 mRNA expression", "setting": "[5]; [13]", "result": "increased two-fold"},
      {"measurement": "Cyclooxygenase-2 expression in the heart (immunostaining)", "setting": "[6]", "result": "restored the presence of cycloxygenase-2"}
    ]}
  ]
}
